The results in this text go back to US9481669B2, “Pladienolide pyridine compounds and methods of use” (Eisai R&D Management Co., Ltd., priority 2014, dated 2016).

For the assay, the system named is alternative splicing in Nalm-6 isogenic cells. Description: Alternative splicing modulation (nCounter Nanostring analysis). The class given is cell-based, human. The conditions noted are these: 10×GI50 for 6 hours. The protocol:
The “+” and “−” indicate positive or negative values, respectively, in the shade key, which indicates the varying levels of expression of the different splice junctions.
The modulation of alternative splicing for E7107 and Compound 2 was determined using the nCounter® analysis system (NanoString Techologies, Inc., Seattle, Wash.). Nalm-6 isogenic cells were treated with Compound 2 or E7107 (obtained from Eisai, Inc.) at 10×GI50 for 6 hours. RNA was isolated using RiboPure™ RNA purification kit (Ambion®) and used for analysis. The RNA was retrotranscribed according to the instructions of the SuperScript® VILO™ cDNA synthesis kit (Invitrogen™) and 0.04 μl of cDNA was used for qPCR.

Each structure is given as a SMILES string.

`C/C(=C\C=C\[C@@H](C)c1ccccn1)[C@H]1OC(=O)C[C@H](O)CC[C@@](C)(O)[C@@H](OC(=O)N2CCN(C)CC2)/C=C/[C@@H]1C` [Compound 2, (2S,3 S,6S,7R,10R,E)-7,10-dihydroxy-3,7-dimethyl-12-oxo-2-((R,2E,4E)-6-(pyridin-2-yl)hepta-2,4-dien-2-yl)oxacyclododec-4-en-6-yl 4-methylpiperazine-1-carboxylate]: the splicing modulation profile entry is given as “distinct from the profile of E7107”.
